Assay in all cases: NCI anticancer screen, dose series, 48 h
In test [1] the test system is LOX IMVI melanoma.
Test [2] concerns MOLT-4 leukemia.
For test [3], the system named is SK-OV-3 ovarian.
Test [4] relates to COLO 205 colon.
For test [5], the system named is SN12C renal.
Test [6] relates to MALME-3M melanoma.
Test [7] concerns HOP-92 NSCLC.
The test system of test [8] is MDA-MB-435.
Test [9] has as its system U251 CNS.
Test [10] relates to NCI-H460 lung.
The subject of test [11] is A498 renal.
Test [12] deals with SR leukemia.
For test [13], the system named is CCRF-CEM leukemia.
In test [14] the test system is HCT-116 colon.
The test system of test [15] is OVCAR-3 ovarian.
Test [16] relates to HCC-2998 colon.
In test [17] the test system is PC-3 prostate.
Test [18] concerns TK-10 renal.
In test [19] the test system is HL-60(TB) leukemia.

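Interpolation was linear, between the two tested concentrations surrounding the appropriate level; five concentrations were tested over 48 hours in 96-well plates. TGI marks complete inhibition of growth.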

For the compound `CCC(NC(C)c1ccccc1)C(O)c1ccc(OCc2ccccc2)c(OCc2ccccc2)c1` (stereo not drawn), the TGI stood at 26.3 µM in [1]; 33.4 µM in test [2]; 32.4 µM in test [3]; 3.88 µM in test [4]; 29.5 µM in test [5]; 28.9 µM in test [6]. Also, the TGI turned out to be 16.7 µM in test [7]; 26.7 µM in [8]; 27.7 µM in [9]; 32.1 µM in test [10]; 39.1 µM in test [11]; 5.58 µM in test [12]. The TGI in [13] stood at 38.7 µM; in [14], 27.7 µM; in [15] it was 25.6 µM; in test [16], 6.49 µM; in test [17] it was 27.4 µM; in [18], 32.4 µM. The compound further had a TGI in test [19] of 30.2 µM.

`[N-]=[N+]=Nc1c(-c2ccccc2)c(Cl)nc2ccccc12`: the TGI is 43.6 µM in [1]; above 100 µM in test [2]; above 100 µM in [3]; 44.7 µM in test [4]; above 100 µM in test [5]; above 100 µM in [6]. Besides, the TGI was above 100 µM in test [7]; above 100 µM in test [8]; above 100 µM in test [9]; above 100 µM in test [10]; 72.2 µM in test [11]; above 100 µM in test [12]. The TGI in [13], in [14], in [15], in test [16], in test [17] and in [18] was above 100 µM each time. Also, the TGI in test [19] is above 100 µM.

With `Cc1cc(=O)[nH]c(NN2C(Cl)C(=O)C2c2ccc(Cl)cc2)n1` (stereo not drawn), the TGI in test [1] was 15.1 µM; in test [2] it was 22.7 µM; in [3], above 100 µM; in test [4], 36.2 µM; in [5] it was 35.7 µM; in [6], 32.3 µM. The TGI in [7] came to 27.7 µM; in test [8] it was 60 µM; in [9], 52.4 µM; in test [10] it was 31.1 µM; in test [11], 53.6 µM; in test [12], 6.22 µM. For the same compound, the TGI in test [13] is 5.67 µM; in [14] it was 31.1 µM; in test [15], 30.3 µM; in test [16], 32.1 µM; in test [17] it was above 100 µM; in test [18], 48.6 µM. The TGI in test [19] amounted to 12.7 µM.

Turning to `COc1ccc(NC2Oc3cc4c(cc3C(c3cccc(OC)c3OC)C2C)OCO4)cc1` (stereo not drawn), the TGI in test [1] is above 100 µM; in test [2], 35.9 µM; in test [3], above 100 µM; in [4], 19.2 µM; in test [5] it was above 100 µM; in test [6], 82.3 µM. In addition, the TGI in [7] is 25.1 µM; in [8], 43.1 µM; in test [9] it was above 100 µM; in test [10], above 100 µM; in test [11] it was 71.1 µM; in test [12] it was 12 µM. Also, the TGI in [13] was 47.1 µM; in test [14], 16.3 µM; in test [15], above 100 µM; in [16], above 100 µM; in [17], 51.3 µM; in [18], above 100 µM. Moreover, the TGI in test [19] was determined as 10.9 µM.

Regarding `COc1ccc(NC(=O)CC(=O)N2N=C(C)C(N=Nc3ccc(S(=O)(=O)c4ccc(N=NC5C(=O)N(C(=O)CC(=O)Nc6ccc(OC)cc6)N=C5C)cc4)cc3)C2=O)cc1` (stereo not drawn), the TGI in test [1], in test [2], in [3], in test [4], in [5] and in [6] was above 100 µM each time. Also, the TGI in test [7], in [8], in [9], in test [10], in [11] and in test [12] was above 100 µM throughout. The TGI in test [13], in test [14], in [15], in test [16], in test [17] and in test [18] was above 100 µM each time. In addition, in test [19], the TGI was above 100 µM.

Consider `Cc1ccc(N2C(=O)C3c4[nH]c5ccccc5c4C4CCC(C(C)(C)C)CC4C3C2=O)cc1` (stereo not drawn), for which the TGI in [1] was 26.6 µM; in test [2] it was 9.2 µM; in test [3], 28.2 µM; in test [4], 22.5 µM; in [5] it was 24.7 µM; in [6], 22.6 µM. The TGI in test [7] was determined as 32.9 µM; in test [8] it was 42 µM; in test [9] it was 16.1 µM; in test [10], 17.2 µM; in test [11], 31.3 µM; in [12] it was 16.6 µM. Moreover, the TGI was 15.4 µM in [13]; 24.6 µM in test [14]; 8.62 µM in [15]; 56.1 µM in [16]; 31.8 µM in test [17]; 15.7 µM in test [18]. Moreover, the TGI in test [19] was above 74.9 µM.

Turning to `Cc1n[nH]c(=O)c2cc(-c3ccccc3)[nH]c12`, the TGI in [1] is above 100 µM; in test [2], above 100 µM; in [3], above 100 µM; in test [4], 71 µM; in test [5], above 100 µM; in [6], above 100 µM. The TGI in test [7] was above 100 µM; in test [8], above 100 µM; in test [9] it was above 100 µM; in test [10], above 100 µM; in test [11], 92.3 µM; in test [12], above 100 µM. The TGI in test [13] was above 100 µM; in [14], above 100 µM; in test [15], above 100 µM; in test [16], above 100 µM; in test [17], 96.6 µM; in test [18] it was above 100 µM. This compound also gave a TGI in test [19] above 100 µM.
